Assay results reported in patent US9518282B2, “Method for utilizing monoterpene glycosyltransferase” (SUNTORY HOLDINGS LIMITED, priority 2010, dated 2016).

What was measured:
UGT85A3 [1] = molecular target: T1, UGT85A3 (Arabidopsis thaliana, UniProt Q9LMF1); assay: Glycosylation activity of purified UGT85A3 on sugar acceptor substrates, LC-MS; format: biochemical; parameters: made in house; host or cells: E. coli BL21(DE3); conditions: for glycosylation activity of UGT85A3 on the sugar acceptor (product detected by LC-MS): 2 mM UDP-glucose, 1.5 mM sugar acceptor substrate, pH 7.5, 30° C., 1 hour
T1 sequence (Q9LMF1 1-488): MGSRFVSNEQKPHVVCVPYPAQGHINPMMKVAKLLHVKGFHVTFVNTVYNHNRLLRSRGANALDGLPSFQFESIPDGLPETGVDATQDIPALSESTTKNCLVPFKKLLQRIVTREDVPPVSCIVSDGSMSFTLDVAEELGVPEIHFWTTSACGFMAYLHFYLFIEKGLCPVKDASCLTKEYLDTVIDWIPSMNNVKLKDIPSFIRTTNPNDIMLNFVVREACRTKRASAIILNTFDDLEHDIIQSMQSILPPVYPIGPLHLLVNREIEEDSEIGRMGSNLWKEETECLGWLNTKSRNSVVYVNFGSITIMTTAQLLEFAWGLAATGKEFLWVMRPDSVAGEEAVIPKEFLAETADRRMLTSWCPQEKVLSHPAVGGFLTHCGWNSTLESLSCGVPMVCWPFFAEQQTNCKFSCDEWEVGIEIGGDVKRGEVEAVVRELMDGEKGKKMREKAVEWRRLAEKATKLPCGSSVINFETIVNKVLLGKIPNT
Experimental: Standard enzyme reaction conditions are as follows. […] LC Conditions Column: CAPCELL PAK C18-UG120 (2.0 mm I.D.×150 mm) Mobile phase: A: water (containing 0.05% formic acid), B: acetonitrile Gradient: linear concentration gradient of B from 15% to 90% over 15 minutes Flow rate: 0.2 ml per minute Column oven: 40° C. MS Conditions ESI (negative mode) SIM mode: (m/z 315, 338, 361, 363, 331, 354, 377, 429, etc.)

UGT85A1 = molecular target: T2, UGT85A1 (Arabidopsis thaliana, UniProt Q9SK82); assay: Glycosylation activity of UGT85A1 on sugar acceptors, LC-MS; format: biochemical; conditions: for relative activity of UGT85A1 on sugar acceptors (in words, FIG. 12): measured per unit reaction time (5 minutes); for glycosylated product of UGT85A1 reaction detected (FIG. 11): same manner as Example 4, LC-MS
T2 construct: made in house; host or cells: E. coli
T2 sequence (Q9SK82 1-489): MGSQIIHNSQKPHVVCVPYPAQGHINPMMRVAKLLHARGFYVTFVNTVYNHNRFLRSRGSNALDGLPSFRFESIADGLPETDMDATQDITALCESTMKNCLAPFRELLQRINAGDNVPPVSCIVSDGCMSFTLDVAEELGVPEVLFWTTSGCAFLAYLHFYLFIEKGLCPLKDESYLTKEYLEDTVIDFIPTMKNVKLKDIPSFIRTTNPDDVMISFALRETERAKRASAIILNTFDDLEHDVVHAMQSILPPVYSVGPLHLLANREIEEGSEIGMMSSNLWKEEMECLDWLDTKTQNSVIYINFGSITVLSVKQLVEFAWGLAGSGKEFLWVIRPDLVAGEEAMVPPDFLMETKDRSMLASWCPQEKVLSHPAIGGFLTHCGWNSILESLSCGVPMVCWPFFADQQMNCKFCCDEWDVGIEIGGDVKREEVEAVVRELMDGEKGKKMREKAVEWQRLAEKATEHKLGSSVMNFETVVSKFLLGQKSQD
Experimental: (§1) Standard enzyme reaction conditions are as follows.
(§2) The enzyme reaction solution (5 μl) was analyzed by LC-MS under the following conditions.
In the same manner as shown in Example 4, linalool, 8-hydroxylinalool, geraniol and 8-hydroxygeraniol were used as sugar acceptors for activity measurement.

UGT85A3 [2] = molecular target: T1, UGT85A3; conditions: 8-hydroxygeraniol as sugar acceptor; fraction of the UDP-glucose level
Experimental: as §1, §2

glycosylation activity of UGT85A3 on the sugar acceptor (product detected by LC-MS) (UGT85A3 [1])	relative activity of UGT85A1 on sugar acceptors (in words, FIG. 12) (UGT85A1)	glycosylated product of UGT85A1 reaction detected (FIG. 11) (UGT85A1)	Compound	also measured
no glycosylation activity			O=C1C[C@@H](c2ccc(O)cc2)Oc2cc(O)cc(O)c21 [Naringenin]	
no glycosylation activity			O=c1cc(-c2ccc(O)cc2)oc2cc(O)cc(O)c12 [Apigenin]	
no glycosylation activity			O=c1ccc2cc(O)c(O)cc2o1 [Esculetin]	
no glycosylation activity			O=c1c(O)c(-c2ccc(O)c(O)c2)oc2cc(O)cc(O)c12 [Quercetin]	
	very low relative activity	glycosylated products were detected	C=CC(C)(O)CCC=C(C)C (stereo not shown) [linalool]	
glycosylation activity			CC(C)=CCCC(C)CCO (stereo not shown) [citronellol]	
glycosylation activity			C=CC(C)(O)CCC=C(C)CCC=C(C)C (stereo not shown) [nerolidol]	
			UDP-gluconic acid	product level with the sugar donor relative to that with UDP-glucose (FIG. 8) (UGT85A3 [2]): less than 1/10

Compound	glycosylation activity of UGT85A3 on the sugar acceptor (product detected by LC-MS) (UGT85A3 [1])	relative activity of UGT85A1 on sugar acceptors (in words, FIG. 12) (UGT85A1)	glycosylated product of UGT85A1 reaction detected (FIG. 11) (UGT85A1)	also measured
C/C(=C\CC/C(C)=C/CO)CO [8-hydroxygeraniol, 8-Hydroxygeraniol]	a peak with a molecular weight suggesting addition of one glucose molecule was obtained	higher activity	glycosylated products were detected	activity of UGT85A3 on the 8-hydroxylated form compared with geraniol / linalool (FIG. 7) (UGT85A3 [1]; UDP-glucose as sugar donor, product yields compared): higher activity; sugar acceptor selectivity of UGT85A1 (relative activity) (UGT85A1; highest activity set to 100%, FIG. 12): 100%
CC(C)=CCC/C(C)=C/CO [geraniol]		higher selectivity for geraniol than linalool	glycosylated products were detected	
